Data reported in ChEMBL document CHEMBL1159302, “Symplostatin 3, a new dolastatin 10 analogue from the marine cyanobacterium Symploca sp. VP452” (J Nat Prod, 2002).
Activity calls are given as the source filed them. The rule behind the calls is not given here. Non-standard residues stand in square brackets, D forms with d. Residues, ends and D or L forms follow the SMILES beside them. *: point of attachment. Dolaproine = CO[C@@H]([C@@H]1CCCN1)[C@@H](C)C(=O)O; Dil = CC[C@H](C)[C@H](NC)[C@@H](CC(=O)O)OC; NMe2Val = CC(C)[C@@H](C(=O)*)N(C)C; PhLac = O=C(O)[C@@H](O)Cc1ccccc1

Columns and labels:
Type in all cases: functional, cell-based
KB = assay: Cytotoxicity against human KB cells by SRB assay
LoVo = assay: Cytotoxicity against human LoVo cells by SRB assay
A10 [1] = assay: Induction of cellular microtubule disrupting activity in rat A10 cells at 0.1 ug/ml after 24 hrs by indirect immunofluorescence technique
A10 [2] = assay: Induction of cellular microtubule disrupting activity in rat A10 cells at 1 ug/ml after 24 hrs by indirect immunofluorescence technique
A10 [3] = assay: Effect on morphology in rat A10 cells assessed as breakdown of nucleus into micronuclei
A10 [4] = assay: Induction of actin filament disrupting activity in rat A10 cells by rhodamine-phalloidin staining

CC[C@H](C)[C@@H]([C@@H](CC(=O)N1CCC[C@H]1[C@H](OC)[C@@H](C)C(=O)O[C@@H](Cc1ccccc1)C(=O)O)OC)N(C)C(=O)[C@@H](NC(=O)[C@H](C(C)C)N(C)C)C(C)C [SYMPLOSTATIN 3] (NMe2Val-V[Dil][Dolaproine][PhLac]-OH)
IC50 (KB): 3.9 nM
IC50 (LoVo): 10.3 nM
Activity (A10 [1]): Active
Activity (A10 [2]): Active
Activity (A10 [3]): Active
Activity (A10 [4]): inactive
